{"source": "patent US9244346B2", "about": "“Negative-type photosensitive resin composition, pattern forming method, cured film, insulating film, color filter, and display device” (TOKYO OHKA KOGYO CO., LTD., priority 2011, dated 2016)", "key": {"[1]": {"experiment": "wavelength (λmax) at absorption spectrum peak and gram absorption coefficient at λmax", "format": "physicochemical", "conditions": "for λmax: wavelength at absorption spectrum peak"}, "[2]": {"experiment": "solubility to propylene glycol monomethyl ether acetate (PM) and cyclohexanone (AN)", "conditions": "for Solubility to Solvent AN: cyclohexanone; for Solubility to Solvent PM: propylene glycol monomethyl ether acetate"}}, "data": [{"molecule": "COc1ccccc1/C=C/C(=O)N1CCCCC1", "note": "[Comparative Compound 2, reference compound]", "values": [{"measurement": "Gram Absorption Coefficient at λmax", "setting": "[1]", "value": 76}, {"measurement": "λmax", "setting": "[1]", "value": 275, "unit": "nm"}, {"measurement": "Solubility to Solvent AN", "setting": "[2]", "value": "<1", "unit": "mass %"}, {"measurement": "Solubility to Solvent PM", "setting": "[2]", "value": "<1", "unit": "mass %"}]}, {"molecule": "CCO[Si](C)(CCCN)OCC", "note": "[Comparative Compound 6, reference compound]", "values": [{"measurement": "Gram Absorption Coefficient at λmax", "setting": "[1]", "value": 143}, {"measurement": "λmax", "setting": "[1]", "value": 212, "unit": "nm"}, {"measurement": "Solubility to Solvent AN", "setting": "[2]", "value": ">50", "unit": "mass %"}, {"measurement": "Solubility to Solvent PM", "setting": "[2]", "value": ">50", "unit": "mass %"}]}, {"molecule": "CCN(CC)C(=O)/C=C/c1ccc(OC)cc1", "note": "[Compound 1]", "values": [{"measurement": "Gram Absorption Coefficient at λmax", "setting": "[1]", "value": 90}, {"measurement": "λmax", "setting": "[1]", "value": 309, "unit": "nm"}, {"measurement": "Solubility to Solvent AN", "setting": "[2]", "value": ">50", "unit": "mass %"}, {"measurement": "Solubility to Solvent PM", "setting": "[2]", "value": ">50", "unit": "mass %"}]}, {"molecule": "COc1ccc(/C=C/C(=O)Nc2ccccc2)cc1", "note": "[Compound 2]", "values": [{"measurement": "Gram Absorption Coefficient at λmax", "setting": "[1]", "value": 117}, {"measurement": "λmax", "setting": "[1]", "value": 317, "unit": "nm"}, {"measurement": "Solubility to Solvent AN", "setting": "[2]", "value": ">50", "unit": "mass %"}, {"measurement": "Solubility to Solvent PM", "setting": "[2]", "value": ">50", "unit": "mass %"}]}, {"molecule": "COc1ccc(/C=C/C(=O)n2ccnc2)cc1", "note": "[Compound 3]", "values": [{"measurement": "Gram Absorption Coefficient at λmax", "setting": "[1]", "value": 81}, {"measurement": "λmax", "setting": "[1]", "value": 293, "unit": "nm"}, {"measurement": "Solubility to Solvent AN", "setting": "[2]", "value": ">50", "unit": "mass %"}, {"measurement": "Solubility to Solvent PM", "setting": "[2]", "value": ">50", "unit": "mass %"}]}, {"molecule": "COc1ccc(/C=C/C(=O)N2CCOCC2)cc1", "note": "[Compound 4]", "values": [{"measurement": "Gram Absorption Coefficient at λmax", "setting": "[1]", "value": 79}, {"measurement": "λmax", "setting": "[1]", "value": 310, "unit": "nm"}]}, {"molecule": "COc1ccc(/C=C/C(=O)n2ccnc2)c([N+](=O)[O-])c1", "note": "[Compound 5]", "values": [{"measurement": "Gram Absorption Coefficient at λmax", "setting": "[1]", "value": 121}, {"measurement": "λmax", "setting": "[1]", "value": 332, "unit": "nm"}]}, {"molecule": "COc1ccc(/C=C/C(=O)n2ccnc2)cc1[N+](=O)[O-]", "note": "[Compound 6]", "values": [{"measurement": "Gram Absorption Coefficient at λmax", "setting": "[1]", "value": 86}, {"measurement": "λmax", "setting": "[1]", "value": 344, "unit": "nm"}]}, {"molecule": "COc1ccc(/C=C(\\C)C(=O)n2ccnc2)c([N+](=O)[O-])c1", "note": "[Compound 7]", "values": [{"measurement": "Gram Absorption Coefficient at λmax", "setting": "[1]", "value": 137}, {"measurement": "λmax", "setting": "[1]", "value": 339, "unit": "nm"}, {"measurement": "Solubility to Solvent AN", "setting": "[2]", "value": ">50", "unit": "mass %"}, {"measurement": "Solubility to Solvent PM", "setting": "[2]", "value": ">50", "unit": "mass %"}]}, {"molecule": "COc1ccc(/C=C(\\C)C(=O)n2ccnc2)cc1[N+](=O)[O-]", "note": "[Compound 8]", "values": [{"measurement": "Gram Absorption Coefficient at λmax", "setting": "[1]", "value": 98}, {"measurement": "λmax", "setting": "[1]", "value": 351, "unit": "nm"}]}, {"molecule": "CCN(CC)C(=O)/C=C/c1ccc(OC)cc1[N+](=O)[O-]", "note": "[Compound 9]", "values": [{"measurement": "Gram Absorption Coefficient at λmax", "setting": "[1]", "value": 102}, {"measurement": "λmax", "setting": "[1]", "value": 342, "unit": "nm"}, {"measurement": "Solubility to Solvent AN", "setting": "[2]", "value": ">50", "unit": "mass %"}, {"measurement": "Solubility to Solvent PM", "setting": "[2]", "value": ">50", "unit": "mass %"}]}, {"molecule": "CCN(CC)C(=O)/C=C/c1ccc(OC)c([N+](=O)[O-])c1", "note": "[Compound 10]", "values": [{"measurement": "Gram Absorption Coefficient at λmax", "setting": "[1]", "value": 119}, {"measurement": "λmax", "setting": "[1]", "value": 354, "unit": "nm"}, {"measurement": "Solubility to Solvent AN", "setting": "[2]", "value": ">50", "unit": "mass %"}, {"measurement": "Solubility to Solvent PM", "setting": "[2]", "value": ">50", "unit": "mass %"}]}, {"molecule": "CCN(CC)C(=O)/C(C)=C/c1ccc(OC)cc1[N+](=O)[O-]", "note": "[Compound 11]", "values": [{"measurement": "Gram Absorption Coefficient at λmax", "setting": "[1]", "value": 107}, {"measurement": "λmax", "setting": "[1]", "value": 349, "unit": "nm"}, {"measurement": "Solubility to Solvent AN", "setting": "[2]", "value": ">50", "unit": "mass %"}, {"measurement": "Solubility to Solvent PM", "setting": "[2]", "value": ">50", "unit": "mass %"}]}, {"molecule": "CCN(CC)C(=O)/C(C)=C/c1ccc(OC)c([N+](=O)[O-])c1", "note": "[Compound 12]", "values": [{"measurement": "Gram Absorption Coefficient at λmax", "setting": "[1]", "value": 127}, {"measurement": "λmax", "setting": "[1]", "value": 361, "unit": "nm"}, {"measurement": "Solubility to Solvent AN", "setting": "[2]", "value": ">50", "unit": "mass %"}, {"measurement": "Solubility to Solvent PM", "setting": "[2]", "value": ">50", "unit": "mass %"}]}, {"molecule": "COc1ccc(/C=C/C(=O)N2CCCCC2)c([N+](=O)[O-])c1", "note": "[Compound 13]", "values": [{"measurement": "Gram Absorption Coefficient at λmax", "setting": "[1]", "value": 87}, {"measurement": "λmax", "setting": "[1]", "value": 313, "unit": "nm"}, {"measurement": "Solubility to Solvent AN", "setting": "[2]", "value": ">50", "unit": "mass %"}, {"measurement": "Solubility to Solvent PM", "setting": "[2]", "value": ">50", "unit": "mass %"}]}, {"molecule": "COc1ccc(/C=C/C(=O)N2CCCCC2)cc1[N+](=O)[O-]", "note": "[Compound 14]", "values": [{"measurement": "Gram Absorption Coefficient at λmax", "setting": "[1]", "value": 94}, {"measurement": "λmax", "setting": "[1]", "value": 322, "unit": "nm"}, {"measurement": "Solubility to Solvent AN", "setting": "[2]", "value": ">50", "unit": "mass %"}, {"measurement": "Solubility to Solvent PM", "setting": "[2]", "value": ">50", "unit": "mass %"}]}, {"molecule": "COc1ccc(/C=C(\\C)C(=O)N2CCCCC2)c([N+](=O)[O-])c1", "note": "[Compound 15]", "values": [{"measurement": "Gram Absorption Coefficient at λmax", "setting": "[1]", "value": 92}, {"measurement": "λmax", "setting": "[1]", "value": 313, "unit": "nm"}, {"measurement": "Solubility to Solvent AN", "setting": "[2]", "value": ">50", "unit": "mass %"}, {"measurement": "Solubility to Solvent PM", "setting": "[2]", "value": ">50", "unit": "mass %"}]}, {"molecule": "COc1ccc(/C=C(\\C)C(=O)N2CCCCC2)cc1[N+](=O)[O-]", "note": "[Compound 16]", "values": [{"measurement": "Gram Absorption Coefficient at λmax", "setting": "[1]", "value": 105}, {"measurement": "λmax", "setting": "[1]", "value": 323, "unit": "nm"}, {"measurement": "Solubility to Solvent AN", "setting": "[2]", "value": ">50", "unit": "mass %"}, {"measurement": "Solubility to Solvent PM", "setting": "[2]", "value": ">50", "unit": "mass %"}]}, {"molecule": "COc1ccc(C=CC(=O)N2CCCCC2)cc1", "note": "[Compound 17]", "values": [{"measurement": "Gram Absorption Coefficient at λmax", "setting": "[1]", "value": 74}, {"measurement": "λmax", "setting": "[1]", "value": 281, "unit": "nm"}, {"measurement": "Solubility to Solvent AN", "setting": "[2]", "value": ">50", "unit": "mass %"}, {"measurement": "Solubility to Solvent PM", "setting": "[2]", "value": ">50", "unit": "mass %"}]}, {"molecule": "COc1ccc(C=C(C)C(=O)n2ccnc2)cc1", "note": "[Compound 18]", "values": [{"measurement": "Gram Absorption Coefficient at λmax", "setting": "[1]", "value": 84}, {"measurement": "λmax", "setting": "[1]", "value": 301, "unit": "nm"}]}, {"molecule": "CCN(CC)C(=O)C(C)=Cc1ccc(OC)cc1", "note": "[Compound 19]", "values": [{"measurement": "Gram Absorption Coefficient at λmax", "setting": "[1]", "value": 86}, {"measurement": "λmax", "setting": "[1]", "value": 318, "unit": "nm"}, {"measurement": "Solubility to Solvent AN", "setting": "[2]", "value": ">50", "unit": "mass %"}, {"measurement": "Solubility to Solvent PM", "setting": "[2]", "value": ">50", "unit": "mass %"}]}, {"molecule": "CCN(CC)C(=O)C=Cc1ccc(OC)cc1O", "note": "[compound 7, reference compound]", "values": [{"measurement": "Gram Absorption Coefficient at λmax", "setting": "[1]", "value": 72}, {"measurement": "λmax", "setting": "[1]", "value": 304, "unit": "nm"}, {"measurement": "Solubility to Solvent AN", "setting": "[2]", "value": ">50", "unit": "mass %"}, {"measurement": "Solubility to Solvent PM", "setting": "[2]", "value": ">50", "unit": "mass %"}]}, {"molecule": "COc1ccc(C=CC(=O)n2ccnc2)c(O)c1", "note": "[compound 9, reference compound]", "values": [{"measurement": "Gram Absorption Coefficient at λmax", "setting": "[1]", "value": 65}, {"measurement": "λmax", "setting": "[1]", "value": 290, "unit": "nm"}, {"measurement": "Solubility to Solvent AN", "setting": "[2]", "value": ">50", "unit": "mass %"}, {"measurement": "Solubility to Solvent PM", "setting": "[2]", "value": ">50", "unit": "mass %"}]}]}
